System: NMRI mice
Test: Passive avoidance (associative memory)
Type: in vivo, mouse
Details: mice pre-treated before training, test after 24 hours; different concentrations; FIG. 17
Method: PURPOSE: To test the pharmacological effect of compounds on associative memory.
PRINCIPLE: A Mouse is placed in a light compartment with access to a dark compartment. If it enter the dark compartment it will receive a foot-shock (0.4 mA). After a delay (24 hours) the association to risk an unpleasant foot-shock by re-entering the dark compartment is tested.
ANIMALS: Female NMRI mice (Bomholdtgaard, DK) weighing 22–25 g were used. The mice were kept in Macrolon plastic cages with free access to food (Altromin, DK) and tap water. The mice were habituated to the laboratory for at least 3 days before testing (light on 7:00am/light off 7:00 pm).
EQUIPMENT: The passive avoidance apparatus consisted of a modular test chambers (ENV-307, MED-Associates, US). The light and the dark compartment consisted of plexiglas boxes of equal size (15×17×13 cm; width×length×height) with metal grid floors. A sliding guillotine door was located at the aperture (4×4 cm) connecting the two compartments. […]
[…]: Entry latency (sec) to re-enter the dark compartment was measured. […]
Training: One mouse is placed in the light compartment and the guillotine door to the dark compartment is opened. […] Test: After a delay (24 hours) the mouse will re-enter the light compartment and time latency to enter the dark compartment is measured with a time limit at 2 minutes. […]

`CN1CCN(S(=O)(=O)c2ccc3c(c2)S(=O)(=O)NC(C2CCCCC2)N3)CC1` (stereo not shown) [Compound 61, 3-Cyclohexyl-7-(4′-methylpiperazino)sulfonyl-1,2,3,4-tetrahydro-1,2,4-benzothiadiazine-1,1-dioxide] was tested. Which “entry latency to re-enter the dark compartment (memory)” value did it give?
Its value is “memory enhancing effect”.

Source: patent US7235548B2, “Compounds and their use as positive AMPA receptor modulators” (NeuroSearch A/S, priority 1998, dated 2007)
